Test results as given in US8193241B2, “Discodermolide analogues and methods of their use” (The Trustees Of The University Of Pennsylvania, priority 2007, dated 2012).

Tests used:
Type in all cases: cell-based
breast (MCF-7) cell line = assay: Antiproliferative activity, MCF-7; details: Homo sapiens, MCF7; MCF-7 breast cell line
[1] = system: wide range of cell lines, including breast (MCF-7), ovarian (SKOV3) and MDR (NCI/ADR); assay: Antiproliferative assays over a series of cell lines (statements in words); details: wide range of cell lines incl. MCF-7, SKOV3, NCI/ADR
[2] = system: ovarian (SKOV3) cell line; assay: Antiproliferative activity, SKOV3; details: Homo sapiens, SK-OV-3
[3] = system: multi-drug resistant (MDR) cell line (NCI/ADR), over-expresses P-glycoprotein; assay: Antiproliferative activity, NCI/ADR; details: Homo sapiens, NCI/ADR-RES

C=C/C=C\C(C)[C@H](OC(N)=O)[C@@H](C)[C@H](O)[C@@H](C)C/C(C)=C\[C@H](C)[C@@H](O)C(C)/C=C\c1ccc2ccc(=O)oc2c1 (single isomer, unassigned; (+)) [(+)-6]
IC50 (breast (MCF-7) cell line): 12 nM | Antiproliferative activity in words [1]: nanomolar activity similar to (+)-discodermolide 1 | IC50 [2]: 44 nM | IC50 [3]: 190 nM

CC/C=C\C(C)[C@H](OC(N)=O)[C@@H](C)[C@H](O)[C@@H](C)C/C(C)=C\[C@H](C)[C@@H](O)C(C)/C=C\c1ccc2ccc(=O)oc2c1 (single isomer, unassigned; (+)) [(+)-8]
IC50 (breast (MCF-7) cell line): 15 nM | Antiproliferative activity in words [1]: nanomolar activity equivalent to (+)-1 and (+)-6 | IC50 [2]: 35 nM | IC50 [3]: 230 nM

CC/C=C\C(C)[C@H](OC(N)=O)[C@@H](C)[C@H](O)[C@@H](C)C/C(C)=C\[C@H](C)[C@@H](O)C(C)/C=C\c1ccc2oc(=O)ccc2c1 (single isomer, unassigned; (+)) [(+)-9]
IC50 (breast (MCF-7) cell line): 1600 nM | Antiproliferative activity in words [1]: micromolar activity | IC50 [2]: 1800 nM | IC50 [3]: 3300 nM

CC/C=C\C(C)[C@H](OC(N)=O)[C@@H](C)[C@H](O)[C@@H](C)C/C(C)=C\[C@H](C)[C@@H](O)C(C)/C=C\c1ccc2c(c1)N(C)C(=O)CO2 (single isomer, unassigned; (+)) [(+)-11]
IC50 (breast (MCF-7) cell line): 1600 nM | Antiproliferative activity in words [1]: micromolar activity | IC50 [2]: 2400 nM | IC50 [3]: 3200 nM

CC/C=C\C(C)[C@H](OC(N)=O)[C@@H](C)[C@H](O)[C@@H](C)C/C(C)=C\[C@H](C)[C@@H](O)C(C)/C=C\c1ccc2c(c1)N(COC)C(=O)CO2 (single isomer, unassigned; (+)) [(+)-12]
IC50 (breast (MCF-7) cell line): 3000 nM | Antiproliferative activity in words [1]: micromolar activity | IC50 [2]: 2900 nM | IC50 [3]: 4000 nM

C=C/C=C\[C@H](C)[C@H](OC(N)=O)[C@@H](C)[C@H](O)[C@@H](C)C/C(C)=C\[C@H](C)[C@@H](O)[C@@H](C)/C=C\[C@@H](O)CC1OC(=O)[C@H](C)[C@@H](O)[C@H]1C (single isomer, unassigned; (+)) [(+)-Discodermolide 1, (+)-discodermolide, reference compound]
IC50 (breast (MCF-7) cell line): 26 nM | IC50 [2]: 25 nM | IC50 [3]: 260 nM

CC/C=C\C(C)[C@H](OC(N)=O)[C@@H](C)[C@H](O)[C@@H](C)C/C(C)=C\[C@H](C)[C@@H](O)C(C)/C=C\c1ccc2c(c1)NC(=O)CO2 (single isomer, unassigned; (-)) [(−)-10]
IC50 (breast (MCF-7) cell line): 430 nM | Antiproliferative activity in words [1]: micromolar activity | IC50 [2]: 790 nM | IC50 [3]: 840 nM
